In patent US20260234159A1, “SMALL MOLECULE TREATMENT OF FATTY LIVER DISEASE AND HCC” (SCANDIEDGE THERAPEUTICS AB, priority 2023, published 2026):

Key:
[1] = In vivo toxicological study in rats: haematology; design: species or system rats of the Wistar strain
Description: Forty-two male and forty-two female rats of the Wistar strain were allocated to the study. Three groups of three males and three females were given doses of 30, 100 and 300 mg/kg of target compounds (Table 8). The vehicle was 1.5 w/w % HPMC, 1.5 w/w % PS80 in 10 mM PBS, pH 7 and dose volume were 5 mL/kg. The animals were acclimatised at least 14 day prior to the study and exposed to a 12 hours light, 12 hours dark light cycle. The formulations were administered via oral gavage. Administration occurred once daily in the morning for seven consecutive days. Blood for scheduled haematology and plasma chemistry were taken at necropsy. For plasma chemistry, 0.6 ml blood (lithium heparin) per animal and for haematology, 0.5 ml blood (K2EDTA) per animal. The blood and plasma were analysed using Exigo analyzer and Vetscan equipment. Blood was analysed within 60 min of sampling. On the morning of analysis, the Exigo analyzer was checked against a reference sample provided by the manufacturer, and a control sample analysis cycle was performed (Table 9).

[2] = In vivo toxicological study in rats: clinical observations and body weight; settings: 300 mg/kg oral administration
Description: Forty-two male and forty-two female rats of the Wistar strain were allocated to the study. Three groups of three males and three females were given doses of 30, 100 and 300 mg/kg of target compounds (Table 8). The vehicle was 1.5 w/w % HPMC, 1.5 w/w % PS80 in 10 mM PBS, pH 7 and dose volume were 5 mL/kg.
The animals were acclimatised at least 14 day prior to the study and exposed to a 12 hours light, 12 hours dark light cycle. The formulations were administered via oral gavage. Administration occurred once daily in the morning for seven consecutive days.
A check of animal health and welfare status was done at least once on working days and weekend days.
Body weights were recorded the week before and within 24 hours before start of dosing, on Day 3 and on necropsy Day 8.

[3] = MTT cell viability after one week steatosis (ranking of target molecules); type: cell-based, human; settings: human, HepG2 cells (wild type); HepG2, 10 μM, one week steatosis induce media, MTT; Control 100.00
How it was run: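 HepG2 cells, 60,000 per well, kept one week in steatosis medium (high-glucose DMEM, 10 μg/ml insulin, 10 μM T0901317) with 10 μM compound. Medium changed at day 0, 3 and 5. Viability measured by MTT.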

[4] = system: HepG2 cells; experiment: Mitochondrial membrane potential assay (TMRE); type: cell-based, human; settings: 10 μM, one day
How it was run: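 HepG2 cells treated with compounds at the chosen concentration and time, then assayed with kits for TMRE, autophagy, DCFDA ROS or lipid peroxidation. Fluorescence intensity measured from ROI in images or by microplate reader in triplicate (GFP Ex480/Em530 nm, RFP Ex549/Em574 nm).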

[5] = female, 30 mg/kg oral daily 7 d
[6] = female, 100 mg/kg oral daily 7 d
[7] = female, 300 mg/kg oral daily 7 d

In the case of `N#Cc1c(NC(=O)c2cccc3ccccc23)sc2c1CCN(C(=O)Nc1ccccc1OC(F)(F)F)C2` [PKL-A159], the GRAN [1, 5] is reported as 0.80 10^9/l, the HCT [1, 5] is reported as 40.3% and the HGB [1, 5] is reported as 14.4 g/dL. The LYM [1, 5] was 4.9 10^9/l, the MCH [1, 5] was 19.4 pg and the MCHC [1, 5] was 35.7 g/dL. For the same compound, the MCV [1, 5] was 54.5 fL, the MONO [1, 5] was 0.13 10^9/l and the PLT [1, 5] was 1028 10^9/l. The RBC [1, 5] was 7.39 10^12/l, the RDW % [1, 5] was 14.1% and the WBC [1, 5] was 5.9 10^9/l. The GRAN [1, 6] was 0.77 10^9/l, the HCT [1, 6] was 41.2% and the HGB [1, 6] was 14.5 g/dL. The LYM [1, 6] was 5.8 10^9/l, the MCH [1, 6] was 18.9 pg and the MCHC [1, 6] was 35.2 g/dL. The MCV [1, 6] was 53.8 fL, the MONO [1, 6] was 0.10 10^9/l and the PLT [1, 6] was 994 10^9/l. The RBC [1, 6] was 7.66 10^12/l, the RDW % [1, 6] was 14.6% and the WBC [1, 6] was 6.7 10^9/l. For the same compound, the GRAN [1, 7] was 0.93 10^9/l, the HCT [1, 7] was 41.1% and the HGB [1, 7] was 14.5 g/dL. The LYM [1, 7] was 5.3 10^9/l, the MCH [1, 7] was 19.4 pg and the MCHC [1, 7] was 35.2 g/dL. For the same compound, the MCV [1, 7] was 55.2 fL, the MONO [1, 7] was 0.17 10^9/l and the PLT [1, 7] was 808 10^9/l. For the same compound, the RBC [1, 7] was 7.45 10^12/l, the RDW % [1, 7] was 14.4% and the WBC [1, 7] was 6.4 10^9/l. For the same compound, the GRAN ([1]; male, 30 mg/kg oral daily 7 d) was 1.03 10^9/l, the HCT ([1]; male, 30 mg/kg oral daily 7 d) was 40.9% and the HGB ([1]; male, 30 mg/kg oral daily 7 d) was 14.5 g/dL. The LYM ([1]; male, 30 mg/kg oral daily 7 d) was 2.8 10^9/l, the MCH ([1]; male, 30 mg/kg oral daily 7 d) was 19.9 pg and the MCHC ([1]; male, 30 mg/kg oral daily 7 d) was 35.4 g/dL. The MCV ([1]; male, 30 mg/kg oral daily 7 d) was 56.3 fL, the MONO ([1]; male, 30 mg/kg oral daily 7 d) was 0.10 10^9/l and the PLT ([1]; male, 30 mg/kg oral daily 7 d) was 1117 10^9/l. The RBC ([1]; male, 30 mg/kg oral daily 7 d) was 7.26 10^12/l, the RDW % ([1]; male, 30 mg/kg oral daily 7 d) was 15.1% and the WBC ([1]; male, 30 mg/kg oral daily 7 d) was 3.9 10^9/l. For the same compound, the GRAN ([1]; male, 100 mg/kg oral daily 7 d) was 1.43 10^9/l, the HCT ([1]; male, 100 mg/kg oral daily 7 d) was 42.4% and the HGB ([1]; male, 100 mg/kg oral daily 7 d) was 14.9 g/dL. The LYM ([1]; male, 100 mg/kg oral daily 7 d) was 7.1 10^9/l, the MCH ([1]; male, 100 mg/kg oral daily 7 d) was 19.9 pg and the MCHC ([1]; male, 100 mg/kg oral daily 7 d) was 35.3 g/dL. The MCV ([1]; male, 100 mg/kg oral daily 7 d) was 56.4 fL, the MONO ([1]; male, 100 mg/kg oral daily 7 d) was 0.23 10^9/l and the PLT ([1]; male, 100 mg/kg oral daily 7 d) was 974 10^9/l. The RBC ([1]; male, 100 mg/kg oral daily 7 d) was 7.51 10^12/l, the RDW % ([1]; male, 100 mg/kg oral daily 7 d) was 15.4% and the WBC ([1]; male, 100 mg/kg oral daily 7 d) was 8.7 10^9/l. For the same compound, the GRAN ([1]; male, 300 mg/kg oral daily 7 d) was 1.00 10^9/l, the HCT ([1]; male, 300 mg/kg oral daily 7 d) was 42.4% and the HGB ([1]; male, 300 mg/kg oral daily 7 d) was 14.8 g/dL. The LYM ([1]; male, 300 mg/kg oral daily 7 d) was 4.6 10^9/l, the MCH ([1]; male, 300 mg/kg oral daily 7 d) was 19.6 pg and the MCHC ([1]; male, 300 mg/kg oral daily 7 d) was 35.1 g/dL. For the same compound, the MCV ([1]; male, 300 mg/kg oral daily 7 d) was 55.8 fL, the MONO ([1]; male, 300 mg/kg oral daily 7 d) was 0.10 10^9/l and the PLT ([1]; male, 300 mg/kg oral daily 7 d) was 1200 10^9/l. For the same compound, the RBC ([1]; male, 300 mg/kg oral daily 7 d) was 7.59 10^12/l, the RDW % ([1]; male, 300 mg/kg oral daily 7 d) was 15.3% and the WBC ([1]; male, 300 mg/kg oral daily 7 d) was 5.7 10^9/l. For the same compound, the “tolerability (adverse clinical signs, body weight, clinical pathology parameters)” value [2] was “well tolerated”, the viability at 1 week, 10 µM [3] was 2.33% and the mitochondrial membrane potential [4] was “significantly decreased”.
With `N#Cc1c(NC(=O)c2cccc3ccccc23)sc2c1CCN(CC(=O)Nc1cccc(Br)c1)C2` [PKL-B171] the GRAN [1, 5] was 0.77 10^9/l, the HCT [1, 5] was 43.0% and the HGB [1, 5] was 15.3 g/dL. The LYM [1, 5] was 4.6 10^9/l, the MCH [1, 5] was 18.9 pg and the MCHC [1, 5] was 35.6 g/dL. The MCV [1, 5] was 53.3 fL, the MONO [1, 5] was 0.13 10^9/l and the PLT [1, 5] was 933 10^9/l. For the same compound, the RBC [1, 5] was 8.08 10^12/l, the RDW % [1, 5] was 14.6% and the WBC [1, 5] was 5.5 10^9/l. The GRAN [1, 6] was 0.77 10^9/l, the HCT [1, 6] was 40.8% and the HGB [1, 6] was 14.4 g/dL. For the same compound, the LYM [1, 6] was 4.4 10^9/l, the MCH [1, 6] was 19.7 pg and the MCHC [1, 6] was 35.4 g/dL. The MCV [1, 6] was 55.5 fL, the MONO [1, 6] was 0.10 10^9/l and the PLT [1, 6] was 1106 10^9/l. For the same compound, the RBC [1, 6] was 7.36 10^12/l, the RDW % [1, 6] was 14.1% and the WBC [1, 6] was 5.2 10^9/l. For the same compound, the GRAN [1, 7] was 1.23 10^9/l, the HCT [1, 7] was 40.5% and the HGB [1, 7] was 14.4 g/dL. For the same compound, the LYM [1, 7] was 5.7 10^9/l, the MCH [1, 7] was 19.1 pg and the MCHC [1, 7] was 35.7 g/dL. For the same compound, the MCV [1, 7] was 53.5 fL, the MONO [1, 7] was 0.17 10^9/l and the PLT [1, 7] was 1027 10^9/l. The RBC [1, 7] was 7.55 10^12/l, the RDW % [1, 7] was 14.2% and the WBC [1, 7] was 7.1 10^9/l. The GRAN ([1]; male, 30 mg/kg oral daily 7 d) was 1.17 10^9/l, the HCT ([1]; male, 30 mg/kg oral daily 7 d) was 40.6% and the HGB ([1]; male, 30 mg/kg oral daily 7 d) was 14.4 g/dL. For the same compound, the LYM ([1]; male, 30 mg/kg oral daily 7 d) was 6.3 10^9/l, the MCH ([1]; male, 30 mg/kg oral daily 7 d) was 19.7 pg and the MCHC ([1]; male, 30 mg/kg oral daily 7 d) was 35.4 g/dL. The MCV ([1]; male, 30 mg/kg oral daily 7 d) was 55.5 fL, the MONO ([1]; male, 30 mg/kg oral daily 7 d) was 0.17 10^9/l and the PLT ([1]; male, 30 mg/kg oral daily 7 d) was 991 10^9/l. For the same compound, the RBC ([1]; male, 30 mg/kg oral daily 7 d) was 7.31 10^12/l, the RDW % ([1]; male, 30 mg/kg oral daily 7 d) was 14.8% and the WBC ([1]; male, 30 mg/kg oral daily 7 d) was 7.7 10^9/l. The GRAN ([1]; male, 100 mg/kg oral daily 7 d) was 1.30 10^9/l, the HCT ([1]; male, 100 mg/kg oral daily 7 d) was 43.2% and the HGB ([1]; male, 100 mg/kg oral daily 7 d) was 15.2 g/dL. The LYM ([1]; male, 100 mg/kg oral daily 7 d) was 6.6 10^9/l, the MCH ([1]; male, 100 mg/kg oral daily 7 d) was 20.1 pg and the MCHC ([1]; male, 100 mg/kg oral daily 7 d) was 35.2 g/dL. For the same compound, the MCV ([1]; male, 100 mg/kg oral daily 7 d) was 57.1 fL, the MONO ([1]; male, 100 mg/kg oral daily 7 d) was 0.17 10^9/l and the PLT ([1]; male, 100 mg/kg oral daily 7 d) was 981 10^9/l. The RBC ([1]; male, 100 mg/kg oral daily 7 d) was 7.57 10^12/l, the RDW % ([1]; male, 100 mg/kg oral daily 7 d) was 14.9% and the WBC ([1]; male, 100 mg/kg oral daily 7 d) was 8.1 10^9/l. The GRAN ([1]; male, 300 mg/kg oral daily 7 d) was 1.40 10^9/l, the HCT ([1]; male, 300 mg/kg oral daily 7 d) was 43.6% and the HGB ([1]; male, 300 mg/kg oral daily 7 d) was 15.4 g/dL. For the same compound, the LYM ([1]; male, 300 mg/kg oral daily 7 d) was 7.0 10^9/l, the MCH ([1]; male, 300 mg/kg oral daily 7 d) was 19.6 pg and the MCHC ([1]; male, 300 mg/kg oral daily 7 d) was 35.4 g/dL. The MCV ([1]; male, 300 mg/kg oral daily 7 d) was 55.4 fL, the MONO ([1]; male, 300 mg/kg oral daily 7 d) was 0.20 10^9/l and the PLT ([1]; male, 300 mg/kg oral daily 7 d) was 1115 10^9/l. For the same compound, the RBC ([1]; male, 300 mg/kg oral daily 7 d) was 7.87 10^12/l, the RDW % ([1]; male, 300 mg/kg oral daily 7 d) was 15.1% and the WBC ([1]; male, 300 mg/kg oral daily 7 d) was 8.6 10^9/l. For the same compound, the “tolerability (adverse clinical signs, body weight, clinical pathology parameters)” value [2] was “well tolerated”, the viability at 1 week, 10 µM [3] was 22% and the mitochondrial membrane potential [4] was “significantly decreased”.
